Values quoted from earlier work in patent publication US20130023661A1, “FLUORINATING REAGENTS WITH (PERFLUORALKYL) FLUOROPHOSPHATE ANION” (MERCK PATENT GESELLSCHAFT MIT BESCHRANKTER HAFTUNG, priority 2010, published 2013).

Settings: stored in a cool, dry place

guaranteed storage stability: not more than one year
Compound: F[N+]12CC[N+](CCl)(CC1)CC2 [F-TEDA-BF4, 1-chloromethyl-4-fluorodiazoniabicyclo[2.2.2]octane bistetrafluoroborate]
